Key:
Water solubility = assay type: physicochemical; conditions: for water solubility: synthesis example, isolated powder
pH of 30% solution = assay type: physicochemical
[1] = system: Total Plate Count Microorganism; test: Biocide effication plate test, total plate count microorganism; assay type: cell-based; conditions: for Total Plate Count: Blanco/Control 2400
E. Coli = test: Biocide effication plate test, E. Coli; assay type: cell-based; conditions: for Total Plate Count: Blanco 3900
Staphylococcus Aerus = test: Biocide effication plate test, Staphylococcus Aerus; assay type: cell-based; conditions: biocide dosing 0.025%
Acinetobacter Anitratus = test: Antibacterial activity MIC; assay type: cell-based; conditions: pH 7-7.5, sample 30% in aqueous solution
Description: (§1) The ability of Tetra Hydroxy Ethyl Di Sulphate-Di Natrium (THES) as a Sulphate chelating agent to open/loosen the cell membrane was tested against two types of bacterias, ie: Staphylococcus aerus (gram positive) that has two cell membrane (the outer membrane as the outer cell wall and the inner membrane) and E. Colli (gram negative) that has three cell membranes. First, the Minimum Inhibitory Concentration (MIC) of each bacterias was determined, then the bacteria membrane alteration after contacting with THES were observed by Electron Microscope (TEM and SEM) with the THES concentration range below and above MIC. Antibacterial activity was tested using disc-diffusion method by checking the clear zone from the paper disc inhibition that contains THES. The growth curve were made by means examining the bacterial culture on the broth media.
(§2) • 1. Bacteria preparation • The testing bacterias were growth on the aqueous medium and incubated for 24 hours at 37° C. • 2. […] This gradual concentration variation is necessary to determine MIC (Minimum Inhibitory Concentration) and the bacteriostatic/bactericidal properties of the tested Biocide. • 3. Determination of Killing method (bacteriostatic and bactericidal properties) • The testing was done on the aqueous medium contains the tested substance with the concentration 5, 10 and 20%. The turbidity of the cultured medium then will be measured every 30 minutes until 270 minutes with spectrophotometer. • 4. Preparation of microbe cells for electron microscope examination • Staphylococcus aereus and Escherichia coli were growth on the aqueous medium within 24 hours, then mixed with tetra hydroxy ethyl di sulphate di sodium (THES) with the final concentration 0.6; 5 and 10%. This system mixtures then was placed under vibrating incubator for several hours. Microbe cells then were separated and washed, first with NaCl 0.9% then with distilled water. Cells then were utilized for the preparation of electron microscope testing. • 5. Preparation for Scanning Electron Microscope (SEM) examination • Bacteria cells were suspended into 4% collodion. The said suspensions then were fixed on some metal disc and were coated with the gold powder. Then were examined with electron microscope and pictured. • 6. Preparation for Transmittance Electron Microscope (TEM) examination • a) The prepared microbes in (5) were fixed into a mixture of formaldehyde 2% and glutaraldehyde 0.5% for 2 hours at 4° C. • b) The above mixtures then was three times washed with pH 7 phosphate buffer, then were diluted into bovin serum albumin (BSA) 1/5 for embedded preparation, while leave glutaraldehyde hardening at room temperature. • c) After leaving dehydrated in alcohol, the white LR resin then will be infiltrated. • d) Embedded process were done at white LR resin following by polymerization process at 60° C. for 48 hours time. The polymerization product as hardened capsules then are ready to be sliced. • e) Making of semi thin and ultra thin slices. • Slices of microbe sample were made by utilizing automatic ultra microtom. To get the precised and accurate slices of sample, semi thin slice were made and coloured with blue toluidine then were examined under the visible microscope. When the right slices were obtained, ultra thin slices were prepared and were made contrast with uranil acetate and lead citrate. The dried ultra thin slices then can be examined with Transmittance Electron Microscope. Testing Results Minimum Inhibitory Concentration (MIC)
(§3) The test done on the pH range of 7-7.5 with the sample of Tetra Hydroxy Ethyl Di Sulphate-Di Natrium (THES-Di Natrium) 30% in aqueous solution.

[2] = system: Bacillus Subtilis ATCC 6633; test: Antibacterial activity MIC; assay type: cell-based; conditions: pH 7-7.5, sample 30% in aqueous solution
Description: as §1, §2, §3

[3] = system: Escherichia Coli ATCC 25922; test: Antibacterial activity MIC; assay type: cell-based; conditions: pH 7-7.5, sample 30% in aqueous solution
Description: as §1, §2, §3

Klebsiella Pneumoniae = test: Antibacterial activity MIC; assay type: cell-based; conditions: pH 7-7.5, sample 30% in aqueous solution
Description: as §1, §2, §3

[4] = system: Pseudomonas Aeruginosa ATCC 27853; test: Antibacterial activity MIC; assay type: cell-based; conditions: pH 7-7.5, sample 30% in aqueous solution
Description: as §1, §2, §3

Salmonella Typhii = test: Antibacterial activity MIC; assay type: cell-based; conditions: pH 7-7.5, sample 30% in aqueous solution
Description: as §1, §2, §3

[5] = system: Staphylococcus Aerus ATCC 6538; test: Antibacterial activity MIC; assay type: cell-based; conditions: pH 7-7.5, sample 30% in aqueous solution
Description: as §1, §2, §3

[6] = system: Staphylococcus Epidermidis ATCC 12228; test: Antibacterial activity MIC; assay type: cell-based; conditions: pH 7-7.5, sample 30% in aqueous solution
Description: as §1, §2, §3

Aspergillus Niger = test: Antifungal activity MIC; assay type: cell-based; conditions: pH 7-7.5, sample 30% in aqueous solution
Description: as §1
(§4) • 1. Bacteria preparation • The testing bacterias were growth on the aqueous medium and incubated for 24 hours at 37° C. • 2. […] The turbidity of the cultured medium then will be measured every 30 minutes until 270 minutes with spectrophotometer. • 4. […] The polymerization product as hardened capsules then are ready to be sliced. • e) Making of semi thin and ultra thin slices. • Slices of microbe sample were made by utilizing automatic ultra microtom. […]

Candida Albicans = test: Antifungal activity MIC; assay type: cell-based; conditions: pH 7-7.5, sample 30% in aqueous solution
Description: as §1, §4

[7] = system: Escherichia coli ATCC 9637; test: Electron microscope (TEM and SEM) examination of cell membrane; assay type: cell-based; conditions: in contact with 0.05% and 1% THES at pH 7 (FIG. 5)
Description: as §1
(§5) Staphylococcus aerus ATCC 6538, Escherichia coli ATCC 9637 were supplied from Chemotherapy Laboratory of Pharmaceutical Department, Bandung Institute of Technology (ITB).
(§6) • 1. […] The turbidity of the cultured medium then will be measured every 30 minutes until 270 minutes with spectrophotometer. • 4. […] The polymerization product as hardened capsules then are ready to be sliced. • e) Making of semi thin and ultra thin slices. • Slices of microbe sample were made by utilizing automatic ultra microtom. […]

[8] = system: Staphylococcus Aerus ATCC 6538; test: as above; assay type: cell-based; conditions: in contact with 0.05% and 1% THES at pH 7 (FIG. 4)
Description: as §1, §5, §6

O=S(=O)(O)OC(O)C(C(O)OS(=O)(=O)O)C(O)OS(=O)(=O)O (stereo not shown) [Tri Hydroxy Isobutyl 1,2,3-Tri Sulphate]
Solubility @ 25° C. (Water solubility): 56.7% | pH of 30% solution (pH of 30% solution): <0.0

O=S(=O)([O-])OC(O)C(O)(OS(=O)(=O)[O-])C(O)(OS(=O)(=O)[O-])C(O)OS(=O)(=O)[O-].[Na+].[Na+].[Na+].[Na+] (stereo not shown) [Tetra Hydroxy Butyl 1,2,3,4 Tetra Sulphate Tetra Natrium]
Solubility @ 25° C. (Water solubility): 27.3% | pH of 30% solution (pH of 30% solution): 0.0-1.0

O=S(=O)(O)OC(OS(=O)(=O)O)(OS(=O)(=O)O)C(OS(=O)(=O)O)(OS(=O)(=O)O)OS(=O)(=O)O [EHS, Ethyl Hexa Sulphate acid (EHS)]
Solubility @ 25° C. (Water solubility): 48% | water solubility (Water solubility): 48% | pH of 30% solution (pH of 30% solution): 0.0

O=S(=O)(O)OC(O)(O)C(O)(O)OS(=O)(=O)O [Tetra Hydroxy Ethyl Di Sulphate]
Solubility @ 25° C. (Water solubility): 48.0% | water solubility (Water solubility): 48% | pH of 30% solution (pH of 30% solution): <0.5

O=S(=O)([O-])OC(O)(O)C(O)(O)OS(=O)(=O)[O-].[Na+].[Na+] [THES-di Natrium]
Solubility @ 25° C. (Water solubility): 31.5% | water solubility (Water solubility): 31% | pH of 30% solution (pH of 30% solution): 0.5-1.5 | Killing efficiency ([1]; biocide dosing 0.05%): 94.5 | Total Plate Count ([1]; biocide dosing 0.05%): 132 Colony/ml | Killing efficiency ([1]; biocide dosing 0.1%): 95.2 | Total Plate Count ([1]; biocide dosing 0.1%): 115 Colony/ml | Killing efficiency ([1]; biocide dosing 0.5%): 95.8 | Total Plate Count ([1]; biocide dosing 0.5%): 101 Colony/ml | Killing efficiency ([1]; biocide dosing 1.0%): 96.7 | Total Plate Count ([1]; biocide dosing 1.0%): 80 Colony/ml | Killing efficiency (E. Coli; biocide dosing 0.025%): 48.5 | Total Plate Count (E. Coli; biocide dosing 0.025%): 2010 Colony/ml | Killing efficiency (E. Coli; biocide dosing 0.05%): 70.5 | Total Plate Count (E. Coli; biocide dosing 0.05%): 1150 Colony/ml | Killing efficiency (E. Coli; biocide dosing 0.1%): 73.1 | Total Plate Count (E. Coli; biocide dosing 0.1%): 1050 Colony/ml | Killing efficiency (E. Coli; biocide dosing 0.5%): 75.1 | Total Plate Count (E. Coli; biocide dosing 0.5%): 970 Colony/ml | Killing efficiency (E. Coli; biocide dosing 1.0%): 81.5 | Total Plate Count (E. Coli; biocide dosing 1.0%): 720 Colony/ml | Killing efficiency (E. Coli; biocide dosing 5.0%): 83.8 | Total Plate Count (E. Coli; biocide dosing 5.0%): 630 Colony/ml | Killing efficiency (Staphylococcus Aerus): 69.8 | Total Plate Count (Staphylococcus Aerus; Blanco 980): 296 Colony/ml | Minimum Inhibitory Concentration (MIC) (Acinetobacter Anitratus): 0.115% | Minimum Inhibitory Concentration (MIC) [2]: 0.234% | Minimum Inhibitory Concentration (MIC) [3]: 0.234% | Minimum Inhibitory Concentration (MIC) (Klebsiella Pneumoniae): 0.234% | Minimum Inhibitory Concentration (MIC) [4]: 0.115% | Minimum Inhibitory Concentration (MIC) (Salmonella Typhii): 0.115% | Minimum Inhibitory Concentration (MIC) [5]: 0.234% | Minimum Inhibitory Concentration (MIC) [6]: 0.234% | Minimum Inhibitory Concentration (MIC) (Aspergillus Niger): 0.937% | Minimum Inhibitory Concentration (MIC) (Candida Albicans): 0.469% | transversal section (TEM) of cell, cell membrane alteration [7]: also experienced the said internal cell liquid lysis out of its cell wall membrane layers | transversal section (TEM) of cell, cell membrane alteration [8]: partly empty cells that has already lost its cytoplasm liquid due to lysis out of cell wall membrane

O=S(=O)(O)OC(O)C(O)(OS(=O)(=O)O)C(O)(OS(=O)(=O)O)C(O)OS(=O)(=O)O (stereo not shown) [Tetra Hydroxy Butyl 1,2,3,4 Tetra Sulphate]
Solubility @ 25° C. (Water solubility): 39.6% | pH of 30% solution (pH of 30% solution): <0.0

O=S(=O)([O-])OOC(O)C(O)(OS(=O)(=O)[O-])C(C(O)OS(=O)(=O)[O-])C(O)OS(=O)(=O)[O-].[Na+].[Na+].[Na+].[Na+] (stereo not shown) [Tetra Hydroxy Isoamyl 1,2,3,4-Tetra Sulphate Tetra Natrium]
Solubility @ 25° C. (Water solubility): 40.1% | pH of 30% solution (pH of 30% solution): 0.0-0.5

O=S(=O)(O)OOC(O)C(O)(OS(=O)(=O)O)C(C(O)OS(=O)(=O)O)C(O)OS(=O)(=O)O (stereo not shown) [Tetra Hydroxy Isoamyl 1,2,3,4-Tetra Sulphate]
Solubility @ 25° C. (Water solubility): 61.2% | pH of 30% solution (pH of 30% solution): <0

O=S(=O)([O-])OC(O)C(C(O)OS(=O)(=O)[O-])C(O)OS(=O)(=O)[O-].[Na+].[Na+].[Na+] (stereo not shown) [Tri Hydroxy Isobutyl 1,2,3-Tri Sulphate Tri Natrium]
Solubility @ 25° C. (Water solubility): 36.2% | pH of 30% solution (pH of 30% solution): 0.0-1.0
